According to patent US20200230205A1, “COMPOSITIONS AND METHODS FOR TREATING MYELIN DISORDERS” (CASE WESTERN RESERVE UNIVERSITY, priority 2017, published 2020):

Tests used:
MMP-2 = MMP-2 in OPC conditioned media or lysate (gelatin zymography, western blot); assay type: cell-based, mouse
Method: To assess MMP-2 or 10 in OPC CM or lysates, OPCs were incubated on precoated PLL, aggrecan, and laminin as described above. OPCs were treated with vehicle, 2.5 μM ISP or SISP for 2 days at 37° C. CM was then harvested and concentrated using Milipore Ultracel YM-C centrifugal filter units at max speed (Eppendorf Centrifuge 5415D) for 30 minutes at 4° C. […] of concentrated CM was loaded into each lane. OPC lysates were assessed using western blot techniques described below with […] protein loaded from each group.
Tissue samples or cerebellar slices or purified OPC cells were homogenized with RIPA lysis buffer and protein concentration was determined by Pierce BCA protein assay kit according to the manufacture instruction (Thermo Fisher). Then, equal amounts of protein were loaded to 15% SDS-PAGE gels, and electrophoretically transferred to PVDF membranes (Millipore). The membranes were blocked in 0.1% TPBS buffer with 5% non-fat milk for 1h at room temperature and probed with indicated primary antibodies overnight at 4° C. and followed by secondary antibody conjugated to horseradish peroxidase (HRP). The following primary antibodies were used: MBP (SMI-99P, Covance, 1:1000), CS-56 (C8035, Sigma, 1:1000), Laminin (L9393, Sigma, 1:1000), GAPDH (AF5718, R and D Systems, 1:1000), MMP-2 (AF1488, R and D Systems, 1:1000), MMP-10 (MAB910, R and D Systems, 1:1000), and […] (sc-47778, Santa Cruz, 1:1000). Enhanced chemiluminescence was performed with a West Pico Kit (Thermo Fisher) and detected by FluorChem E system (ProteinSimple, USA). The density of bands was quantified using ImageJ software (NIH).
CM was collected from 1×10^6 OPCs incubated on PLL, 1 μg/mL laminin, and 2 μg/mL aggrecan coated 6-well plates. OPCs were treated with vehicle, 2.5 μM ISP or SISP for 2 days at 37° C. […] Following washes with destaining buffer (40% MeOH, 10% Acetic Acid), Zymograms were imaged and the amount of gelatin degradation was assessed using ImageJ in a method described in the western blot section.

MMP-10 = MMP-10 western blot of OPC conditioned media; assay type: cell-based, mouse; details: OPC CM, 2.5 μM peptide, same as vehicle
Method: To assess MMP-2 or 10 in OPC CM or lysates, OPCs were incubated on precoated PLL, aggrecan, and laminin as described above. OPCs were treated with vehicle, 2.5 μM ISP or SISP for 2 days at 37° C. CM was then harvested and concentrated using Milipore Ultracel YM-C centrifugal filter units at max speed (Eppendorf Centrifuge […]) for 30 minutes at 4° C. […] of concentrated CM was loaded into each lane. OPC lysates were assessed using western blot techniques described below with […] protein loaded from each group. Tissue samples or cerebellar slices or purified OPC cells were homogenized with RIPA lysis buffer and protein concentration was determined by Pierce BCA protein assay kit according to the manufacture instruction (Thermo Fisher). Then, equal amounts of protein were loaded to 15% SDS-PAGE gels, and electrophoretically transferred to PVDF membranes (Millipore). The membranes were blocked in 0.1% TPBS buffer with 5% non-fat milk for 1h at room temperature and probed with indicated primary antibodies overnight at 4° C. and followed by secondary antibody conjugated to horseradish peroxidase (HRP). […] Enhanced chemiluminescence was performed with a West Pico Kit (Thermo Fisher) and detected by FluorChem E system (ProteinSimple, USA). The density of bands was quantified using ImageJ software (NIH).

## GRKKRRQRRRCDMAEHMERLKANDSLKLSQEYESI [ISP]
MMP-2; OPC CM, 2.5 μM ISP vs controls
  MMP-2 gelatin-degrading activity, zymography: significantly increased
MMP-2; OPC lysates, ISP
  MMP-2 expression in OPC lysates normalized over GAPDH: decrease in MMP-2 expression
MMP-2; concentrated OPC CM, 2.5 μM ISP
  MMP-2 in OPC CM, western blot: clearly enhanced
MMP-10
  MMP-10 secretion, western blot: equally low amounts
